Data taken from PMC8956739, “A synthetic lipopeptide targeting top-priority multidrug-resistant Gram-negative pathogens” (Nature Communications, 2022).
“And” between values parts separate entries of the source, which are not always exact repeats. Equal entries are not always repeated. Residues, ends and D or L forms follow the SMILES beside them.

How the values were obtained:
A. baumannii FADDI-AB051 = assay: Neutropenic mouse pneumonia model; type: in vivo; settings: for bacterial killing in lung at 24 h vs pre-treatment inoculum: 45 mg/kg/d IP in three divided doses every 8 h; for Tukey HSD diff, Pre-treatment minus treated group (Log10 CFU/lung) / Tukey HSD diff, Vehicle minus treated group (Log10 CFU/lung): Fig. b; for Log10 CFU/lung: Figure 3b, individual mice
Description: (§1) The experimental methodology for the neutropenic mouse lung infection model was previously described in detail. Briefly, Swiss mice (female, 7-week-old, 22–28 g) were rendered neutropenic by intraperitoneal administration of cyclophosphamide, 4 days (150 mg/kg) and 1 day (100 mg/kg) prior to inoculation. Lung infection was established by the administration of 25 µL of early log-phase bacterial suspension (polymyxin-susceptible or resistant isolate, 4 × 10^7 CFU/mL), directly into the lungs via the trachea using a MicroSprayer™ device. Lipopeptide solutions were prepared in sterile saline. At 2 h after inoculation, mice (n = 3 or 4) were administered lipopeptide (45–240 mg/kg/d free base) or control (sterile saline) via an intraperitoneal or subcutaneous bolus injection in three divided doses every 8 h. At 0 or 24 h after the administration of lipopeptide solution or saline (control), animals were euthanized and lungs were collected and homogenized under sterile conditions. Homogenate was filtered and the filtrate was collected, serially diluted in sterile saline, and spread on nutrient agar plates. Agar plates were incubated at 37 °C overnight for bacterial colony counting and the bacterial load of the lung (log10 CFU/lung) in each mouse was calculated. In vivo efficacy was calculated as the difference of the log10 CFU/lung values between the treated mice at 24 h and the pre-treatment (control) at 0 h (Δlog10 CFU/lung = log10 [treated] CFU/lung − log10 [pre-treatment] CFU/lung).

[1] = test system: K. pneumoniae FADDI-KP065; assay: Neutropenic mouse pneumonia model; type: in vivo; settings: for bacterial killing in lung at 24 h vs pre-treatment inoculum: 45 mg/kg/d IP in three divided doses every 8 h; for Tukey HSD diff, Pre-treatment minus treated group (Log10 CFU/lung) / Tukey HSD diff, Vehicle minus treated group (Log10 CFU/lung): Fig. c; for Log10 CFU/lung: Figure 3c, individual mice
Description: as §1

[2] = test system: P. aeruginosa FADDI-PA038; assay: Neutropenic mouse pneumonia model; type: in vivo; settings: for bacterial killing in lung at 24 h vs pre-treatment inoculum: 45 mg/kg/d IP in three divided doses every 8 h; for Tukey HSD diff, Pre-treatment minus treated group (Log10 CFU/lung) / Tukey HSD diff, Vehicle minus treated group (Log10 CFU/lung): Fig. a; for Log10 CFU/lung: Figure 3a, individual mice
Description: as §1

A. baumannii FADDI-AB30 = assay: Neutropenic mouse thigh infection model; type: in vivo; settings: for diff of mean Log10 CFU/lung, Pre-treament minus treatment / diff of mean Log10 CFU/lung, Vehicle minus treatment / Log10 CFU/lung, Thigh 1 / Log10 CFU/lung, Thigh 2 / Log10 CFU/lung, Thigh 3 / Log10 CFU/lung, Thigh 4: 45mg/kg/d; for Log10 CFU/lung, Thigh 1 / Log10 CFU/lung, Thigh 2 / Log10 CFU/lung, Thigh 3 / Log10 CFU/lung, Thigh 4: neutropenic mouse thigh infection; for Log10 CFU/lung, Thigh 1: Thigh 1 (Supp Fig. 4); for Log10 CFU/lung, Thigh 2: Thigh 2 (Supp Fig. 4); for Log10 CFU/lung, Thigh 3: Thigh 3 (Supp Fig. 4); for Log10 CFU/lung, Thigh 4: Thigh 4 (Supp Fig. 4)
Description: The experimental methodology for the neutropenic mouse thigh infection model was previously described in detail. Briefly, Swiss mice (female, 7-week-old, 22–28 g) were rendered neutropenic by intraperitoneal administration of cyclophosphamide 4 days (150 mg/kg) and 1 day (100 mg/kg) prior to inoculation. Thigh infection was established by the administration of a 50 µL bolus of early log-phase bacterial suspension (4 × 10^8 CFU/mL) directly into each thigh of two mice in each group (n = 4 thighs); this method is well accepted in antibiotic pharmacokinetic/ pharmacodynamic studies to minimize animal usage. Lipopeptide solutions were prepared in sterile saline. At 2 h after inoculation, mice were administered a lipopeptide or control solution via an intraperitoneal bolus injection at 15 mg/kg, three doses every 8 h. At 0 and 24 h after the administration, animals were euthanized and each thigh was collected and homogenized under sterile conditions. Homogenate was filtered and the filtrate was collected, serially diluted in sterile saline, and spread on nutrient agar plates. Agar plates were incubated at 37 °C overnight for bacterial colony counting and the bacterial load of both thighs (log10 CFU/thigh) in each mouse was calculated. In vivo efficacy was calculated as the difference of the log10 CFU/thigh values between the treated mice at 24 h and the pre-treatment (control) at 0 h (Δlog10 CFU/thigh = log10 [treated] CFU/thigh − log10 [pre-treatment] CFU/thigh).

[3] = 14-day repeat-dose GLP toxicology study; settings: cynomolgus monkey, in vivo
Description: (§2) A 14-day repeat-dose GLP toxicology study of F365 was conducted in Cynomolgus monkeys. The study complied with the OECD Principles of Good Laboratory Practice. […] Cynomolgus monkeys were approximately 2–4 years of age and weighed between 2.0 and 2.9 kg at the start of treatment. Four male and four female cynomolgus monkeys were used for each dose group. F365 (in 0.9% sodium chloride for injection) was administered four times daily (i.e. 6 h ± 15 min apart) as 60-min intravenous infusion at 5, 20, and 50 mg/kg/day for 14 consecutive days; the reference item (vehicle control) was also administered. Assessments of mortality checks, clinical observations, body weight, ophthalmology, and electrocardiography were conducted. Blood and urine samples were collected pre-treatment and at the end of the dosing period for hematology, clinical chemistry, coagulation, and urinalysis assessments. Other blood samples were collected after the first and last dose for toxicokinetic assessment. Following the end of the 14-day dosing period, animals were euthanized on Day 16 and examined macroscopically. Organ weights and macroscopic observations were recorded at necropsy for all groups. Histopathological examinations were performed on the specified tissues and organ list for animals across all groups.

cynomolgus monkeys = assay: 14-day repeat-dose GLP toxicology study; settings: cynomolgus monkey, in vivo
Description: as §2

[4] = test system: female cynomolgus monkeys; set-up: method as in earlier work; settings: 3.8 mg/kg/12 h (7.6 mg/kg/day) for 7 days ref 27; cited from earlier work
[5] = 90 mg/kg/d IP in three divided doses every 8 h

CC[C@@H]1NC(=O)[C@@H](CC(C)C)NC(=O)[C@H](CCN)NC(=O)[C@@H](NC(=O)[C@H](CN)NC(=O)[C@@H](NC(=O)[C@H](CCN)NC(=O)c2ccc(Cl)cc2Cl)[C@@H](C)O)CCNC(=O)[C@H]([C@@H](C)O)NC(=O)[C@H](CCN)NC(=O)[C@H](CCN)NC1=O [Lipopeptide F365] (HELM PEPTIDE1{[O=C(c1ccc(Cl)cc1Cl)[*:2]].[Dab].T.[NC[C@H](N[*:1])C(=O)[*:2]].[Dab].[Dab].[dL].[Abu].[Dab].[Dab].T}$PEPTIDE1,PEPTIDE1,5:R3-11:R2$$$V2.0)
bacterial killing in lung at 24 h vs pre-treatment inoculum (A. baumannii FADDI-AB051): did not show any significant killing
bacterial killing in lung at 24 h (A. baumannii FADDI-AB051; [5]): bacterial killing
Tukey HSD diff, Pre-treatment minus treated group (Log10 CFU/lung) (A. baumannii FADDI-AB051; 45mg/kg/d): -1.2425
Tukey HSD diff, Vehicle minus treated group (Log10 CFU/lung) (A. baumannii FADDI-AB051; 45mg/kg/d): 0.7467
Tukey HSD diff, Pre-treatment minus treated group (Log10 CFU/lung) (A. baumannii FADDI-AB051; 90mg/kg/d): 2.8025
Tukey HSD diff, Vehicle minus treated group (Log10 CFU/lung) (A. baumannii FADDI-AB051; 90mg/kg/d): 4.792
Log10 CFU/lung (A. baumannii FADDI-AB051; 45mg/kg/d): 7.89 Log10 CFU/lung and 8.25 Log10 CFU/lung and 7.87 Log10 CFU/lung and 7.93 Log10 CFU/lung
Log10 CFU/lung (A. baumannii FADDI-AB051; 90mg/kg/d): 3.25 Log10 CFU/lung and 3.88 Log10 CFU/lung and 6.08 Log10 CFU/lung and 2.55 Log10 CFU/lung
bacterial killing in lung at 24 h vs pre-treatment inoculum [1]: did not show any significant killing
bacterial killing in lung at 24 h [1, 5]: bacterial killing
Tukey HSD diff, Pre-treatment minus treated group (Log10 CFU/lung) ([1]; 45mg/kg/d): 0.265
Tukey HSD diff, Vehicle minus treated group (Log10 CFU/lung) ([1]; 45mg/kg/d): 2.146
Tukey HSD diff, Pre-treatment minus treated group (Log10 CFU/lung) ([1]; 90mg/kg/d): 2.6475
Tukey HSD diff, Vehicle minus treated group (Log10 CFU/lung) ([1]; 90mg/kg/d): 4.5285
Log10 CFU/lung ([1]; 45mg/kg/d): 4.76 Log10 CFU/lung and 7.31 Log10 CFU/lung and 6.40 Log10 CFU/lung and 7.13 Log10 CFU/lung
Log10 CFU/lung ([1]; 90mg/kg/d): 5.21 Log10 CFU/lung and 3.53 Log10 CFU/lung and 3.48 Log10 CFU/lung and 3.85 Log10 CFU/lung
bacterial killing in lung at 24 h vs pre-treatment inoculum [2]: did not show any significant killing
bacterial killing in lung at 24 h [2, 5]: bacterial killing
Tukey HSD diff, Pre-treatment minus treated group (Log10 CFU/lung) ([2]; 45mg/kg/d): -0.4375
Tukey HSD diff, Vehicle minus treated group (Log10 CFU/lung) ([2]; 45mg/kg/d): 2.481
Tukey HSD diff, Pre-treatment minus treated group (Log10 CFU/lung) ([2]; 90mg/kg/d): 1.005
Tukey HSD diff, Vehicle minus treated group (Log10 CFU/lung) ([2]; 90mg/kg/d): 3.9235
Log10 CFU/lung ([2]; 45mg/kg/d): 7.09 Log10 CFU/lung and 6.80 Log10 CFU/lung and 6.82 Log10 CFU/lung and 6.79 Log10 CFU/lung
Log10 CFU/lung ([2]; 90mg/kg/d): 5.12 Log10 CFU/lung and 5.34 Log10 CFU/lung and 5.83 Log10 CFU/lung and 5.44 Log10 CFU/lung
reduction in CFU/thigh beyond polymyxin B (A. baumannii FADDI-AB30; 45 mg/kg/d IP in 3 divided doses every 8 h, 24 h): > 2.0 log10 CFU/thigh
diff of mean Log10 CFU/lung, Pre-treament minus treatment (A. baumannii FADDI-AB30; one way ANOVA comparison): 5.655 log10 CFU/thigh
diff of mean Log10 CFU/lung, Vehicle minus treatment (A. baumannii FADDI-AB30; one way ANOVA comparison): 5.9625 log10 CFU/thigh
diff of mean Log10 CFU/lung, Polymyxin B minus F365 (A. baumannii FADDI-AB30; both 45mg/kg/d, one way ANOVA comparison, Polymyxin B - F365): 2.515 log10 CFU/thigh
Log10 CFU/lung, Thigh 1 (A. baumannii FADDI-AB30): 2.83 log10 CFU/thigh
Log10 CFU/lung, Thigh 2 (A. baumannii FADDI-AB30): 0 log10 CFU/thigh
Log10 CFU/lung, Thigh 3 (A. baumannii FADDI-AB30): 3.13 log10 CFU/thigh
Log10 CFU/lung, Thigh 4 (A. baumannii FADDI-AB30): 0 log10 CFU/thigh
NOAEL [3]: ≥ 20 mg/kg/day
AUC(0-t) ([3]; 5 mg/kg, Plasma AUC0-24 Day 1): 24 µg·h/mL
AUC(0-t) ([3]; 5 mg/kg, Plasma AUC0-24 Day 14): 26.4 µg·h/mL
AUC(0-t) ([3]; 20 mg/kg, Plasma AUC0-24 Day 1): 97.2 µg·h/mL
AUC(0-t) ([3]; 20 mg/kg, Plasma AUC0-24 Day 14): 110 µg·h/mL
AUC(0-t) ([3]; 50 mg/kg, Plasma AUC0-24 Day 1): 246 µg·h/mL
AUC(0-t) ([3]; 50 mg/kg, Plasma AUC0-24 Day 14): 378 µg·h/mL
estimated dose that can be safely administered to patients (cynomolgus monkeys): at least 6.5 mg/kg/day
Kidney histopathology (cynomolgus monkeys; 5 mg/kg): 8/8 no changes

Polymyxin B [reference compound]
bacterial killing in lung at 24 h vs pre-treatment inoculum (A. baumannii FADDI-AB051): did not show any significant killing
Tukey HSD diff, Pre-treatment minus treated group (Log10 CFU/lung) (A. baumannii FADDI-AB051; 45mg/kg/d): -1.5825
Tukey HSD diff, Vehicle minus treated group (Log10 CFU/lung) (A. baumannii FADDI-AB051; 45mg/kg/d): 0.4067
Log10 CFU/lung (A. baumannii FADDI-AB051; 45mg/kg/d): 8.40 Log10 CFU/lung and 8.27 Log10 CFU/lung and 8.53 Log10 CFU/lung and 8.10 Log10 CFU/lung
bacterial killing in lung at 24 h vs pre-treatment inoculum [1]: did not show any significant killing
Tukey HSD diff, Pre-treatment minus treated group (Log10 CFU/lung) ([1]; 45mg/kg/d): -0.6875
Tukey HSD diff, Vehicle minus treated group (Log10 CFU/lung) ([1]; 45mg/kg/d): 1.1935
Log10 CFU/lung ([1]; 45mg/kg/d): 7.24 Log10 CFU/lung and 7.26 Log10 CFU/lung and 7.84 Log10 CFU/lung and 7.07 Log10 CFU/lung
bacterial killing in lung at 24 h vs pre-treatment inoculum [2]: did not show any significant killing
Tukey HSD diff, Pre-treatment minus treated group (Log10 CFU/lung) ([2]; 45mg/kg/d): -1.2575
Tukey HSD diff, Vehicle minus treated group (Log10 CFU/lung) ([2]; 45mg/kg/d): 1.661
Log10 CFU/lung ([2]; 45mg/kg/d): 7.47 Log10 CFU/lung and 7.01 Log10 CFU/lung and 7.92 Log10 CFU/lung and 8.38 Log10 CFU/lung
diff of mean Log10 CFU/lung, Pre-treament minus treatment (A. baumannii FADDI-AB30; one way ANOVA comparison): 3.14 log10 CFU/thigh
diff of mean Log10 CFU/lung, Vehicle minus treatment (A. baumannii FADDI-AB30; one way ANOVA comparison): 3.4475 log10 CFU/thigh
Log10 CFU/lung, Thigh 1 (A. baumannii FADDI-AB30): 5.16 log10 CFU/thigh
Log10 CFU/lung, Thigh 2 (A. baumannii FADDI-AB30): 5.25 log10 CFU/thigh
Log10 CFU/lung, Thigh 3 (A. baumannii FADDI-AB30): 3.38 log10 CFU/thigh
Log10 CFU/lung, Thigh 4 (A. baumannii FADDI-AB30): 2.23 log10 CFU/thigh
kidney findings [4]: increased histological damage in all test animals
